Laboratory results published in ChEMBL document CHEMBL1201862, “PubChem BioAssay data set” (2004).
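All cell lines were grown in 96-well plates and treated with compound for 48 hours. The concentration for 50% growth inhibition is given as GI50.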 Activity calls are given as the source filed them. Cut-off read from the data, not from the text of the source: active = GI50 up to about 1.1 µM and inactive = higher.

Assays:
Test in all cases: NCI-60 cell line screen, 48 h
A549 = system: A549
COLO 205 = system: COLO 205
HCC 2998 = system: HCC 2998
HT-29 = system: HT-29
IGROV-1 = system: IGROV-1
K562 = system: K562
NCI-H23 = system: NCI-H23
NCI-H460 = system: NCI-H460
NCI-H522 = system: NCI-H522
OVCAR-3 = system: OVCAR-3
OVCAR-4 = system: OVCAR-4
SNB-19 = system: SNB-19
SNB-78 = system: SNB-78
UACC-257 = system: UACC-257
UO-31 = system: UO-31
A498 = system: A498

Measured: GI50

CC1=CC(=O)C(=O)C2=C1OC1(C2)C(C)CCC2C3(C)CCC(O)C(C)(C)C3CCC21C (configuration not stated)
inactive: A549 33.3 µM | COLO 205 16.3 µM | HCC 2998 19 µM | HT-29 20.6 µM | IGROV-1 17.6 µM | K562 17 µM | NCI-H23 15.8 µM | NCI-H460 17.5 µM | NCI-H522 15.2 µM | OVCAR-3 18.6 µM | OVCAR-4 17.2 µM | SNB-19 16.8 µM | SNB-78 22.4 µM | UACC-257 18.9 µM | UO-31 18.4 µM

Cc1ccc(S(=O)(=O)N/N=C/C(C)C)cc1
inactive: A498 > 100 µM | A549 > 100 µM | COLO 205 > 100 µM | HCC 2998 > 100 µM | HT-29 > 100 µM | IGROV-1 > 100 µM | K562 > 100 µM | NCI-H23 > 100 µM | NCI-H460 > 100 µM | OVCAR-3 > 100 µM | OVCAR-4 > 100 µM | SNB-19 > 100 µM | SNB-78 > 100 µM | UACC-257 > 100 µM | UO-31 > 100 µM

COc1cc2c(oc(=O)c3c4oc([Si](C)(C)C)cc4cc(OC)c23)c2cccc(OCc3ccccc3)c12
inactive: A498 31.4 µM | A549 44 µM | COLO 205 54.2 µM | HCC 2998 > 64.3 µM | HT-29 48.9 µM | IGROV-1 50.5 µM | K562 57 µM | NCI-H23 16.3 µM | NCI-H460 53.7 µM | NCI-H522 36.4 µM | OVCAR-3 34.8 µM | OVCAR-4 33.1 µM | SNB-19 23.8 µM | SNB-78 17 µM | UACC-257 47.6 µM | UO-31 > 63.7 µM

O=C(Nc1nnc(S)[nH]1)C(=O)C(C(=O)c1ccc2ccccc2c1)C1OC(=O)c2ccccc21 (configuration not stated)
inactive: A498 > 100 µM | A549 37.5 µM | COLO 205 15.9 µM | HCC 2998 11.5 µM | HT-29 35 µM | IGROV-1 20.4 µM | K562 21 µM | NCI-H23 17.1 µM | NCI-H460 > 100 µM | NCI-H522 17.6 µM | OVCAR-3 15.5 µM | OVCAR-4 16.2 µM | SNB-19 7.64 µM | SNB-78 29.8 µM | UACC-257 19.7 µM | UO-31 15.7 µM

C/C(=C\CC[C@]1(C)OC(C)(C)OC1CC/C(C)=C/CO[Si](c1ccccc1)(c1ccccc1)C(C)(C)C)CC/C=C/CO[Si](C)(C)C(C)(C)C (some centres not stated)
inactive: A498 > 100 µM | A549 > 100 µM | HCC 2998 > 100 µM | HT-29 > 100 µM | IGROV-1 > 100 µM | K562 > 100 µM | NCI-H23 > 100 µM | NCI-H460 > 100 µM | NCI-H522 > 100 µM | OVCAR-3 74.5 µM | OVCAR-4 > 100 µM | SNB-19 > 100 µM | SNB-78 > 100 µM | UACC-257 > 100 µM | UO-31 > 100 µM

CS(=O)(=O)OCCCOS(C)(=O)=O
inactive: A498 > 100 µM | A549 > 100 µM | COLO 205 > 100 µM | HCC 2998 > 100 µM | HT-29 > 100 µM | IGROV-1 > 100 µM | K562 > 100 µM | NCI-H23 > 100 µM | NCI-H460 > 100 µM | NCI-H522 > 100 µM | OVCAR-3 > 100 µM | OVCAR-4 > 100 µM | SNB-19 > 100 µM | SNB-78 > 100 µM | UACC-257 > 100 µM | UO-31 > 100 µM

O=C1c2ccccc2C(=O)N1C/C=N/NS(=O)(=O)c1ccc(Br)cc1
inactive: A498 > 100 µM | A549 > 100 µM | COLO 205 > 100 µM | HCC 2998 > 100 µM | HT-29 > 100 µM | IGROV-1 > 100 µM | K562 > 100 µM | NCI-H23 > 100 µM | NCI-H460 > 100 µM | NCI-H522 > 100 µM | OVCAR-3 > 100 µM | OVCAR-4 > 100 µM | SNB-19 > 100 µM | SNB-78 > 100 µM | UACC-257 > 100 µM | UO-31 > 100 µM

COC(=O)CC(=O)OC1C[C@@H]2CCC3C(C)(C)CCC[C@]3(C)C23CC[C@@]1(C)C3 (some centres not stated)
inactive: A549 24.5 µM | COLO 205 18.6 µM | HCC 2998 19.8 µM | HT-29 19.2 µM | IGROV-1 16.9 µM | K562 > 100 µM | NCI-H23 18.4 µM | NCI-H460 19.8 µM | NCI-H522 12.9 µM | OVCAR-3 16.9 µM | OVCAR-4 16.9 µM | SNB-19 17.4 µM | SNB-78 19.6 µM | UACC-257 19.1 µM | UO-31 19.4 µM

c1cnc2c3[nH]cc4[nH]c5ccccc5c4c-3nc2c1
inactive: A498 > 100 µM | A549 > 100 µM | COLO 205 54.7 µM | HCC 2998 52.4 µM | HT-29 29.8 µM | IGROV-1 > 100 µM | K562 36.5 µM | NCI-H23 > 100 µM | NCI-H460 35.6 µM | NCI-H522 > 100 µM | OVCAR-3 53 µM | OVCAR-4 44 µM | SNB-19 > 100 µM | SNB-78 > 100 µM | UACC-257 > 100 µM | UO-31 42.4 µM

N#C/C(=C1\OC(=O)C(c2ccc(Br)cc2)=C1O)c1ccc(Br)cc1
inactive: A498 15.5 µM | A549 18 µM | COLO 205 17.9 µM | HCC 2998 15.5 µM | HT-29 17.3 µM | IGROV-1 14.2 µM | K562 19.3 µM | NCI-H23 12.9 µM | NCI-H460 15.7 µM | NCI-H522 12.4 µM | OVCAR-3 14.9 µM | OVCAR-4 16.5 µM | SNB-19 14.4 µM | SNB-78 12.3 µM | UACC-257 15.3 µM | UO-31 15.1 µM

O=C1/C(=N\O)C2CCC1C2 (configuration not stated)
inactive: A498 > 100 µM | A549 > 100 µM | COLO 205 > 100 µM | HCC 2998 > 100 µM | HT-29 > 100 µM | IGROV-1 > 100 µM | K562 > 100 µM | NCI-H23 > 100 µM | NCI-H460 > 100 µM | NCI-H522 > 100 µM | OVCAR-3 > 100 µM | OVCAR-4 > 100 µM | SNB-19 > 100 µM | SNB-78 > 100 µM | UACC-257 > 100 µM | UO-31 > 100 µM

Cc1cc(Cl)ccc1NC(=O)C(=O)Cc1nc2ccccc2o1
inactive: A498 > 100 µM | A549 > 100 µM | COLO 205 > 100 µM | HCC 2998 > 100 µM | HT-29 > 100 µM | IGROV-1 > 100 µM | K562 > 100 µM | NCI-H23 > 100 µM | NCI-H460 > 100 µM | NCI-H522 > 100 µM | OVCAR-3 > 100 µM | OVCAR-4 > 100 µM | SNB-19 > 100 µM | SNB-78 > 100 µM | UACC-257 > 100 µM | UO-31 > 100 µM

Nc1nc(S)nc(C(=O)Nc2nccs2)c1-c1ccccc1
inactive: A498 > 100 µM | A549 > 100 µM | COLO 205 > 100 µM | HCC 2998 > 100 µM | HT-29 > 100 µM | IGROV-1 > 100 µM | K562 > 100 µM | NCI-H23 > 100 µM | NCI-H460 > 100 µM | NCI-H522 > 100 µM | OVCAR-3 > 100 µM | OVCAR-4 > 100 µM | SNB-19 > 100 µM | SNB-78 > 100 µM | UACC-257 > 100 µM | UO-31 > 100 µM

CN1NC(c2ccccc2)=C(C#N)C(=O)CC1c1ccccc1Cl (configuration not stated)
inactive: A549 > 100 µM | COLO 205 > 100 µM | HCC 2998 > 100 µM | HT-29 > 100 µM | NCI-H23 > 100 µM | NCI-H460 > 100 µM | NCI-H522 65.2 µM | OVCAR-4 > 100 µM | SNB-19 > 100 µM | SNB-78 > 100 µM | UACC-257 > 100 µM

COc1ccc2c(c1)OC[C@@H]1c3cc4c(cc3O[C@H]21)OCO4
inactive: A498 > 100 µM | A549 > 100 µM | COLO 205 > 100 µM | HCC 2998 > 100 µM | HT-29 > 100 µM | K562 > 100 µM | NCI-H23 > 100 µM | NCI-H460 > 100 µM | NCI-H522 > 100 µM | OVCAR-3 > 100 µM | OVCAR-4 35.7 µM | SNB-19 30.4 µM | SNB-78 > 100 µM | UO-31 > 100 µM

CC(=O)OC1CCn2nnc(CO)c21 (configuration not stated)
inactive: A549 > 100 µM | COLO 205 > 100 µM | HCC 2998 > 100 µM | HT-29 > 100 µM | IGROV-1 > 100 µM | K562 > 100 µM | NCI-H23 > 100 µM | NCI-H460 > 100 µM | NCI-H522 > 100 µM | OVCAR-3 > 100 µM | OVCAR-4 > 100 µM | SNB-19 > 100 µM | SNB-78 > 100 µM | UACC-257 > 100 µM | UO-31 > 100 µM

O=[N+]([O-])c1ccc(-c2noc(-c3ccc(Cl)cc3)c2C2=NCCN2)cc1
inactive: A549 > 100 µM | COLO 205 > 100 µM | HCC 2998 > 100 µM | HT-29 > 100 µM | IGROV-1 > 100 µM | K562 > 100 µM | NCI-H460 > 100 µM | NCI-H522 > 100 µM | OVCAR-3 > 100 µM | OVCAR-4 > 100 µM | SNB-19 > 100 µM | SNB-78 > 100 µM | UACC-257 > 100 µM | UO-31 > 100 µM

COc1ccc(-c2cc(C(=O)Nc3cc(C(F)(F)F)cc(C(F)(F)F)c3)c3ccccc3n2)cc1
inactive: A498 15.1 µM | A549 4.71 µM | COLO 205 13.4 µM | HCC 2998 11.4 µM | HT-29 9.06 µM | IGROV-1 12.6 µM | K562 4.89 µM | NCI-H23 5.9 µM | NCI-H460 5.42 µM | OVCAR-3 4.93 µM | OVCAR-4 8.3 µM | SNB-78 19.5 µM | UACC-257 17.6 µM | UO-31 24.5 µM
